In patent publication US7700717B2, “Photo-active backbone cyclized somatostatin analogs for photodynamic therapy and imaging” (DeveloGen Israel Ltd., priority 2002, dated 2010):

Experiments:
[1] = tested on: subcutaneously implanted H69 human lung cancer; test: Ex vivo biodistribution by fiber-optic spectrofluorimetry (FOS) in tissues of mice bearing H69 tumors; settings: for Fluorescence intensity (a.u.), Kidney / Fluorescence intensity (a.u.), Liver / Fluorescence intensity (a.u.), Lung / Fluorescence intensity (a.u.), Pancreas / Fluorescence intensity (a.u.), Skin / Fluorescence intensity (a.u.), Spleen / Fluorescence intensity (a.u.), Tumor: ex vivo, 24 hours after i.v. administration, FOS
Source text: An argon ion laser (Melles Griot, 43 series) was coupled to a spectrofluorophotometer (Shimadzu, model RF-5301PC) using a bifurcated fiber bundle (Oriel, Stratford, Conn., model 77533). Laser light (488 nm) was passed via one leg of the fiber bundle, the common end tip of the bundle was fixed at a distance of 1 mm from a tissue sample, while the end tip of the second leg was mounted in front of the entrance slit of the spectrofluorophotometer. Laser irradiation from the fiber was set to 5 mW, as measured with a laser power meter (Laserstar, Ophir, Israel). An average of three recordings was used for each data point.
For control, one mouse was injected with fluorescein.
Fluorescence measurements were performed: • 1. […] Ex vivo 24 hours post injection using FOS. • 3.

[2] = tested on: SST-R2 and SST-R5; settings: cited from earlier work
[3] = molecular target: hSST-R4 (Homo sapiens, UniProt P31391); settings: cited from earlier work
hSST-R4, sequence (P31391 whole entry): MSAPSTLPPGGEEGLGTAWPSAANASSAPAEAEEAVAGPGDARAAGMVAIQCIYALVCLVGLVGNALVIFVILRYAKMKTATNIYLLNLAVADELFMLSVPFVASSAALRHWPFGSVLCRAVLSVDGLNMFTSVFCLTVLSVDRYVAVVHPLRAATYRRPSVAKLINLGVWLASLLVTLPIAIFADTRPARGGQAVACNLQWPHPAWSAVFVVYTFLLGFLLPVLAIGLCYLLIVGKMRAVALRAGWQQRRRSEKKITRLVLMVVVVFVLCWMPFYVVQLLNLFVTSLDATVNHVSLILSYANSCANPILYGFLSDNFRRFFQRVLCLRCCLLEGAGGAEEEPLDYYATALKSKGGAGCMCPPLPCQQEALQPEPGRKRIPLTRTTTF

[4] = tested on: subcutaneously implanted H69 human lung cancer; settings: mouse, iv
Description: Balb/c nude mice xenografts inoculated subcutaneously with the human small cell lung cancer cell line, H69.
Hundred μl of each agent (1 mM stock) were dissolved in 0.5 ml of saline and injected intravenously. For control, one mouse was injected with fluorescein.
In vivo during 24 hours after agent administrations using point (˜1 mm^2 area) measurements by fiber-optic spectroscopic system (FOS). • 2. Ex vivo 24 hours post injection using FOS. • 3.

[5] = molecular target: T1, hSST-R2 (Homo sapiens, UniProt P30874); test: Inhibition of 125I-Tyr11-SRIF (SRIF-14) binding to membranes of CHO cells expressing cloned human SST-R2; settings: Table 2; affinity for hSST-R2, cloned human receptor in CHO cells
T1 construct: expressed in transfected cells
T1 sequence (P30874 whole entry): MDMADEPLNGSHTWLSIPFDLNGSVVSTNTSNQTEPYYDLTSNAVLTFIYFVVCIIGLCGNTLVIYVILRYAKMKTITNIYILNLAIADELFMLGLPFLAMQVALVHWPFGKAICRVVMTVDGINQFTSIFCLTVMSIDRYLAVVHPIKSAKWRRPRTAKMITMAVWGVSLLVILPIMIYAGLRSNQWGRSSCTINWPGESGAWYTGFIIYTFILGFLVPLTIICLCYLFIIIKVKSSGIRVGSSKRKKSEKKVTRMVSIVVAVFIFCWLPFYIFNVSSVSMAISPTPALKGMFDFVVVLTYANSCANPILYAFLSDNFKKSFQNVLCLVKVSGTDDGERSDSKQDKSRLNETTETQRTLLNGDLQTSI
Description: The SST analogs were tested for their potency in inhibition of the binding of ^125I-Tyr^11-SRIF (based on the method described by Raynor et. al., Molecular Pharmacology 43: 838, 1993) to membrane preparations expressing transmembrane SST receptors (SST-R1, 2, 3, 4 or 5). The receptor preparations used for these tests were either from the cloned human receptors selectively and stably expressed in Chinese Hamster Ovary (CHO) cells or from cell lines naturally expressing the SST-Rs. Typically, cell membranes were homogenized in Tris buffer in the presence of protease inhibitors and incubated for 30-40 minutes with ^125I-Tyr^11-SRIF with different concentrations of the tested sample. The binding reactions were filtered, the filters were washed and the bound radioactivity was counted in […] after addition of scintillation solution. Non specific binding was defined as the radioactivity remaining bound in the presence of 1 μM unlabeled SRIF-14.
The receptor membrane preparations used for these tests were from the cloned human receptors selectively and stably expressed in CHO cells and the radiolabelled analog used was (3-[^125]tyrosyl^11)SRIF-14. Table 2 above describes the results of the binding assays of selected analogs to the human cloned SST-R2.
The compounds were tested at a concentration of 10 nM, for SRIF-14 displacement on hSST-R2 expressed cells.

## C[C@@H](O)[C@@H]1NC(=O)[C@H](CCCCN)NC(=O)[C@@H](Cc2c[nH]c3ccccc23)NC(=O)[C@H](Cc2c[nH]c3ccccc23)NC(=O)[C@H](Cc2ccccc2)NC(=O)CN(C(=O)CCCNC(=O)c2ccc3c(c2)C(=O)OC32c3ccc(O)cc3Oc3cc(O)ccc32)CCSSCCN(CC(N)=O)C(=O)[C@H](Cc2ccccc2)NC1=O [Compound 48, 5- and 6-carboxyfluorescein-GABA-GlyS2*-Phe-Trp-DTrp-Lys-Thr-Phe-GlyS2*-NH2]
[1]
  Fluorescence intensity (a.u.), Kidney: 15 ± 6 a.u.
  Fluorescence intensity (a.u.), Liver: 10 ± 5 a.u.
  Fluorescence intensity (a.u.), Lung: 25 ± 8 a.u.
  Fluorescence intensity (a.u.), Pancreas: 16 ± 5 a.u.
  Fluorescence intensity (a.u.), Skin: 90 ± 20 a.u.
  Fluorescence intensity (a.u.), Spleen: 7 ± 2 a.u.
  Fluorescence intensity (a.u.), Tumor: 50 ± 20 a.u.

## C[C@@H](O)[C@@H]1NC(=O)[C@H](CCCCN)NC(=O)[C@@H](Cc2c[nH]c3ccccc23)NC(=O)[C@H](Cc2c[nH]c3ccccc23)NC(=O)[C@H](Cc2ccccc2)NC(=O)CN(C(=O)[C@@H](Cc2ccccc2)NC(=O)CCNC(=O)c2ccc3c(c2)C(=O)OC32c3ccc(O)cc3Oc3cc(O)ccc32)CCSSCCN(CC(N)=O)C(=O)[C@H](Cc2ccccc2)NC1=O [Compound 64, 5- and 6-carboxyfluorescein-βAla-DPhe-GlyS2*-Phe-Trp-DTrp-Lys-Thr-Phe-GlyS2*-NH2]
[1]
  Fluorescence intensity (a.u.), Kidney: 20 ± 3 a.u.
  Fluorescence intensity (a.u.), Liver: 12 ± 2 a.u.
  Fluorescence intensity (a.u.), Lung: 40 ± 6 a.u.
  Fluorescence intensity (a.u.), Skin: 120 ± 18 a.u.
  Fluorescence intensity (a.u.), Spleen: 4 ± 1 a.u.
  Fluorescence intensity (a.u.), Tumor: 110 ± 17 a.u.

## GABA*-Phe-Trp-DTrp-Lys-Thr-Phe-GlyC3*-NH2 (XFWWKTFG; not fully specified; backbone cyclized; GABA; C-terminal amide) [PTR 3173]
[2]
  SST receptor subtype selectivity: selective for SST-R2 and SST-R5
[3]
  affinity to hSST-R4: moderate affinity

## C[C@@H](O)[C@@H]1NC(=O)[C@H](CCCCN)NC(=O)[C@@H](Cc2c[nH]c3ccccc23)NC(=O)[C@H](Cc2c[nH]c3ccccc23)NC(=O)[C@H](Cc2ccccc2)NC(=O)[C@@H](NC(=O)[C@@H](Cc2ccccc2)NC(=O)CCCNC(=S)Nc2ccc3c(c2)C(=O)OC32c3ccc(O)cc3Oc3cc(O)ccc32)CSSCCN(CC(N)=O)C(=O)[C@H](Cc2ccccc2)NC1=O [Compound 86, 5-(aminothionyl)fluorescein-GABA-DPhe-Cys*-Phe-Trp-DTrp-Lys-Thr-Phe-GlyS2*-NH2]
[4]
  fluorescence in normal organs in ex vivo spectral images: no fluorescence in normal organs
  tumor fluorescence in ex vivo spectral images: high and selective tumor fluorescence
[5]
  IC50: 1.7 nM
[1]
  Fluorescence intensity (a.u.), Kidney: 23 ± 5 a.u.
  Fluorescence intensity (a.u.), Liver: 13 ± 3 a.u.
  Fluorescence intensity (a.u.), Lung: 70 ± 14 a.u.
  Fluorescence intensity (a.u.), Pancreas: 22 ± 6 a.u.
  Fluorescence intensity (a.u.), Skin: 65 ± 13 a.u.
  Fluorescence intensity (a.u.), Spleen: 7 ± 1.4 a.u.
  Fluorescence intensity (a.u.), Tumor: 626 ± 55 a.u.
[1]; mouse, in vivo
  tissue accumulation / specificity to the tumor in words: particularly high specificity to the tumor

## C[C@@H](O)[C@@H]1NC(=O)[C@H](CCCCN)NC(=O)[C@@H](Cc2c[nH]c3ccccc23)NC(=O)[C@H](Cc2c[nH]c3ccccc23)NC(=O)[C@H](Cc2ccccc2)NC(=O)CN(C(=O)[C@@H](Cc2ccccc2)NC(=O)CCCCNC(=S)Nc2ccc3c(c2)C(=O)OC32c3ccc(O)cc3Oc3cc(O)ccc32)CCSSCCN(CC(N)=O)C(=O)[C@H](Cc2ccccc2)NC1=O [Compound 70, 5-(aminothionyl)fluorescein-aminopentanoyl-DPhe-GlyS2*-Phe-Trp-DTrp-Lys-Thr-Phe-GlyS2*-NH2]
[1]
  Fluorescence intensity (a.u.), Kidney: 18 ± 3 a.u.
  Fluorescence intensity (a.u.), Liver: 5 ± 1 a.u.
  Fluorescence intensity (a.u.), Lung: 27 ± 4 a.u.
  Fluorescence intensity (a.u.), Pancreas: 10 ± 2 a.u.
  Fluorescence intensity (a.u.), Skin: 116 ± 17 a.u.
  Fluorescence intensity (a.u.), Spleen: 2 ± 0.3 a.u.
  Fluorescence intensity (a.u.), Tumor: 122 ± 18 a.u.

## C[C@@H](O)[C@@H]1NC(=O)[C@H](CCCCN)NC(=O)[C@@H](Cc2c[nH]c3ccccc23)NC(=O)[C@H](Cc2c[nH]c3ccccc23)NC(=O)[C@H](Cc2ccccc2)NC(=O)CN(C(=O)[C@@H](Cc2ccccc2)NC(=O)CCNC(=S)Nc2ccc3c(c2)C(=O)OC32c3ccc(O)cc3Oc3cc(O)ccc32)CCSSCCN(CC(N)=O)C(=O)[C@H](Cc2ccccc2)NC1=O [Compound 62, 5-(aminothionyl)fluorescein-βAla-DPhe-GlyS2*-Phe-Trp-DTrp-Lys-Thr-Phe-GlyS2*-NH2]
[4]
  fluorescence in normal organs in ex vivo spectral images: no (lungs and kidney) or little (dermis) fluorescence
  tumor fluorescence in ex vivo spectral images: high and selective fluorescence
[1]
  Fluorescence intensity (a.u.), Kidney: 32 ± 5 a.u.
  Fluorescence intensity (a.u.), Liver: 17 ± 3 a.u.
  Fluorescence intensity (a.u.), Lung: 37 ± 6 a.u.
  Fluorescence intensity (a.u.), Skin: 120 ± 18 a.u.
  Fluorescence intensity (a.u.), Spleen: 4 ± 1 a.u.
  Fluorescence intensity (a.u.), Tumor: 106 ± 16 a.u.
